{"source": "patent US11414424B2", "about": "“Cardiac sarcomere inhibitors” (Cytokinetics, Inc., priority 2018, dated 2022)", "tested_on": "bovine cardiac myofibrils", "assay": "Myofibril assay: PK/LDH-coupled steady-state ATPase activity of skinned bovine cardiac myofibrils", "assay_type": "biochemical", "details": "Ca2+ activating to 75% of maximal rate", "in_short": "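Steady-state ATPase of detergent-skinned bovine left-ventricular myofibrils (1 mg/mL), PK/LDH-coupled NADH read at 340 nm, in PIPES/MgCl2 buffer pH 6.8 with 50 μM ATP, 0.6 mM EGTA and CaCl2 set for 50% or 75% activation. Inhibition of activity measured.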", "data": [{"smiles": "Cc1csc(N2CC3(C2)C(=O)N(C(C)C)CC(=O)N3Cc2ccc(Cl)cc2)n1", "note": "[Compound 43, 5-(4-chlorobenzyl)-8-isopropyl-2-(4-methyl-thiazol-2-yl)-2,5,8-triazaspiro[3.5]nonane-6,9-dione]", "values": [{"measurement": "CDMF75 IC15", "value": 3.3, "unit": "µM"}]}, {"smiles": "Cc1cnc(N2CC3(C2)C(=O)N(C(C)C)CC(=O)N3Cc2ccc(Cl)cc2)s1", "note": "[Compound 44, 5-(4-chlorobenzyl)-8-isopropyl-2-(5-methyl-thiazol-2-yl)-2,5,8-triazaspiro[3.5]nonane-6,9-dione]", "values": [{"measurement": "CDMF75 IC15", "value": 2.4, "unit": "µM"}]}, {"smiles": "Cc1nnc(N2CC3(C2)C(=O)N(C(C)C)CC(=O)N3Cc2ccc(Cl)cc2)o1", "note": "[Compound 45, 5-(4-chlorobenzyl)-8-isopropyl-2-(5-methyl-1,3,4-oxadiazol-2-yl)-2,5,8-triazaspiro[3.5]-nonane-6,9-dione]", "values": [{"measurement": "CDMF75 IC15", "value": 12.8, "unit": "µM"}]}, {"smiles": "CC(C)N1CC(=O)N(Cc2ccc(C(F)(F)F)cc2)C2(CN(c3ccccn3)C2)C1=O", "note": "[Compound 46, 8-isopropyl-2-(pyridin-2-yl)-5-(4-(trifluoromethyl)-benzyl)-2,5,8-triazaspiro-[3.5]nonane-6,9-dione]", "values": [{"measurement": "CDMF75 IC15", "value": 0.9, "unit": "µM"}]}, {"smiles": "CC(C)N1CC(=O)N(Cc2ccc(Cl)cc2)C2(CN(c3nc4c(s3)COCC4)C2)C1=O", "note": "[Compound 47, 5-(4-chlorobenzyl)-2-(6,7-dihydro-4H-pyrano[4,3-d]thiazol-2-yl)-8-isopropyl-2,5,8-triazaspiro[3.5]-nonane-6,9-dione]", "values": [{"measurement": "CDMF75 IC15", "value": 3.7, "unit": "µM"}]}, {"smiles": "CC(C)N1CC(=O)N(Cc2ccc(C(F)(F)F)cc2)C2(CN(c3cc[nH]c(=O)c3)C2)C1=O", "note": "[Compound 48, 8-isopropyl-2-(2-oxo-1,2-dihydropyridin-4-yl)-5-(4-(trifluoromethyl)benzyl)-2,5,8-triazaspiro[3.5]-nonane-6,9-dione]", "values": [{"measurement": "CDMF75 IC15", "value": 1.6, "unit": "µM"}]}, {"smiles": "Cc1cc(N2CC3(C2)C(=O)N(C(C)C)CC(=O)N3Cc2ccc(Cl)cc2)cc(C)n1", "note": "[Compound 49, 5-(4-chlorobenzyl)-2-(2,6-dimethylpyridin-4-yl)-8-isopropyl-2,5,8-triazaspiro[3.5]nonane-6,9-dione]", "values": [{"measurement": "CDMF75 IC15", "value": 9.3, "unit": "µM"}]}, {"smiles": "CC(C)N1CC(=O)N(Cc2ccc(Cl)cc2)C2(CN(c3ccc(Cl)nn3)C2)C1=O", "note": "[Compound 50, 5-(4-chlorobenzyl)-2-(6-chloropyridazin-3-yl)-8-isopropyl-2,5,8-triazaspiro[3.5]nonane-6,9-dione]", "values": [{"measurement": "CDMF75 IC15", "value": 5.8, "unit": "µM"}]}, {"smiles": "COc1ccc(N2CC3(C2)C(=O)N(C(C)C)CC(=O)N3Cc2ccc(Cl)cc2)nn1", "note": "[Compound 51, 5-(4-chlorobenzyl)-8-isopropyl-2-(6-methoxypyridazin-3-yl)-2,5,8-triazaspiro-[3.5]nonane-6,9-dione]", "values": [{"measurement": "CDMF75 IC15", "value": 5.7, "unit": "µM"}]}, {"smiles": "CC(C)N1CC(=O)N(Cc2ccc(Cl)cc2)C2(CN(c3ccc(=O)[nH]n3)C2)C1=O", "note": "[Compound 52, 5-(4-chlorobenzyl)-8-isopropyl-2-(6-oxo-1,6-dihydropyridazin-3-yl)-2,5,8-triazaspiro[3.5]-nonane-6,9-dione]", "values": [{"measurement": "CDMF75 IC15", "value": 17.8, "unit": "µM"}]}, {"smiles": "CC(C)N1CC(=O)N(Cc2ccc(Cl)cc2)C2(CN(c3ccc(C(F)(F)F)nn3)C2)C1=O", "note": "[Compound 53, 5-(4-chlorobenzyl)-8-isopropyl-2-(6-(trifluoromethyl)pyridazin-3-yl)-2,5,8-triazaspiro-[3.5]nonane-6,9-dione]", "values": [{"measurement": "CDMF75 IC15", "value": 14.7, "unit": "µM"}]}, {"smiles": "CC(C)N1CC(=O)N(Cc2ccc(Cl)cc2)C2(CN(c3ccc(C(N)=O)nn3)C2)C1=O", "note": "[Compound 54, 6-(5-(4-chlorobenzyl)-8-isopropyl-6,9-dioxo-2,5,8-triazaspiro[3.5]-nonan-2-yl)pyridazine-3-carboxamide]", "values": [{"measurement": "CDMF75 IC15", "value": 7.8, "unit": "µM"}]}, {"smiles": "Cc1ccc(N2CC3(C2)C(=O)N(C(C)C)CC(=O)N3Cc2ccc(Cl)cc2)nn1", "note": "[Compound 55, 5-(4-chlorobenzyl)-8-isopropyl-2-(6-methylpyridazin-3-yl)-2,5,8-triazaspiro[3.5]-nonane-6,9-dione]", "values": [{"measurement": "CDMF75 IC15", "value": 6.7, "unit": "µM"}]}, {"smiles": "CC(C)N1CC(=O)N(Cc2ccc(Cl)cc2)C2(CN(c3cnc(Cl)cn3)C2)C1=O", "note": "[Compound 56, 5-(4-chlorobenzyl)-2-(5-chloropyrazin-2-yl)-8-isopropyl-2,5,8-triazaspiro[3.5]nonane-6,9-dione]", "values": [{"measurement": "CDMF75 IC15", "value": 18.3, "unit": "µM"}]}, {"smiles": "CCN1CC(=O)N(Cc2ccc(C(F)(F)F)cc2)C2(CN(c3ccc(C#N)cn3)C2)C1=O", "note": "[Compound 57, 6-(8-ethyl-6,9-dioxo-5-(4-(trifluoromethyl)benzyl)-2,5,8-triazaspiro[3.5]-nonan-2-yl)nicotinonitrile]", "values": [{"measurement": "CDMF75 IC15", "value": 33.3, "unit": "µM"}]}, {"smiles": "N#Cc1ccc(N2CC3(C2)C(=O)N(C2CCCC2)CC(=O)N3Cc2ccc(C(F)(F)F)cc2)nc1", "note": "[Compound 58, 6-(8-cyclopentyl-6,9-dioxo-5-(4-(trifluoromethyl)benzyl)-2,5,8-triazaspiro[3.5]-nonan-2-yl)nicotinonitrile]", "values": [{"measurement": "CDMF75 IC15", "value": 4.1, "unit": "µM"}]}, {"smiles": "CC(C)CN1CC(=O)N(Cc2ccc(C(F)(F)F)cc2)C2(CN(c3ccc(C#N)cn3)C2)C1=O", "note": "[Compound 59, 6-(8-isobutyl-6,9-dioxo-5-(4-(trifluoromethyl)benzyl)-2,5,8-triazaspiro[3.5]-nonan-2-yl)nicotinonitrile]", "values": [{"measurement": "CDMF75 IC15", "value": 23.4, "unit": "µM"}]}, {"smiles": "CC(C)N1CC(=O)N(Cc2ccc(Cl)cc2)C2(CN(c3cc(Cl)cnn3)C2)C1=O", "note": "[Compound 60, 5-(4-chlorobenzyl)-2-(5-chloropyridazin-3-yl)-8-isopropyl-2,5,8-triazaspiro[3.5]nonane-6,9-dione]", "values": [{"measurement": "CDMF75 IC15", "value": 14.3, "unit": "µM"}]}, {"smiles": "CC(C)N1CC(=O)N(Cc2ccc(Cl)cc2)C2(CN(c3cnnc(Cl)c3)C2)C1=O", "note": "[Compound 61, 5-(4-chlorobenzyl)-2-(6-chloropyridazin-4-yl)-8-isopropyl-2,5,8-triazaspiro[3.5]nonane-6,9-dione]", "values": [{"measurement": "CDMF75 IC15", "value": 22.9, "unit": "µM"}]}, {"smiles": "N#Cc1ccc(N2CC3(C2)C(=O)N(C2CCCCC2)CC(=O)N3Cc2ccc(C(F)(F)F)cc2)nc1", "note": "[Compound 62, 6-(8-cydohexyl-6,9-dioxo-5-(4-(trifluoromethyl)-benzyl)-2,5,8-triazaspiro[3.5]nonan-2-yl)nicotinonitrile]", "values": [{"measurement": "CDMF75 IC15", "value": 1.8, "unit": "µM"}]}, {"smiles": "CC(C)N1CC(=O)N(Cc2ccc(Cl)cc2)C2(CN(c3ccc(C#N)cn3)C2)C1=O", "note": "[Compound 63, 6-(5-(4-chlorobenzyl)-8-isopropyl-6,9-dioxo-2,5,8-triazaspiro[3.5]nonan-2-yl)nicotinonitrile]", "values": [{"measurement": "CDMF75 IC15", "value": 5.1, "unit": "µM"}]}, {"smiles": "COC(=O)N1CC2(C1)C(=O)N(C(C)C)CC(=O)N2Cc1ccc(Cl)cc1", "note": "[Compound 64, methyl 5-(4-chlorobenzyl)-8-isopropyl-6,9-dioxo-2,5,8-triazaspiro[3.5]-nonane-2-carboxylate]", "values": [{"measurement": "CDMF75 IC15", "value": 23.6, "unit": "µM"}]}, {"smiles": "CNC(=O)N1CC2(C1)C(=O)N(C(C)C)CC(=O)N2Cc1ccc(Cl)cc1", "note": "[Compound 65, 5-(4-chlorobenzyl)-8-isopropyl-N-methyl-6,9-dioxo-2,5,8-triazaspiro[3.5]nonane-2-carboxamide]", "values": [{"measurement": "CDMF75 IC15", "value": 9.8, "unit": "µM"}]}, {"smiles": "CC(C)N1CC(=O)N(Cc2ccc(Cl)cc2)C2(CN(C(=O)Nc3cnn(C)c3)C2)C1=O", "note": "[Compound 66, 5-(4-chlorobenzyl)-8-isopropyl-N-(1-methyl-1H-pyrazol-4-yl)-6,9-dioxo-2,5,8-triazaspiro[3.5]-nonane-2-carboxamide]", "values": [{"measurement": "CDMF75 IC15", "value": 17.6, "unit": "µM"}]}, {"smiles": "CNC(=O)N1CC2(C1)C(=O)N(C(C)C)CC(=O)N2Cc1ccc(C(F)(F)F)cc1", "note": "[Compound 67, 8-isopropyl-N-methyl-6,9-dioxo-5-(4-(trifluoromethyl)benzyl)-2,5,8-triazaspiro[3.5]-nonane-2-carboxamide]", "values": [{"measurement": "CDMF75 IC15", "value": 6.0, "unit": "µM"}]}, {"smiles": "CC(C)N1CC(=O)N(Cc2ccc(C(F)(F)F)cc2)C2(CN(C(N)=O)C2)C1=O", "note": "[Compound 68, 8-isopropyl-6,9-dioxo-5-(4-(trifluoromethyl)benzyl)-2,5,8-triazaspiro[3.5]-nonane-2-carboxamide]", "values": [{"measurement": "CDMF75 IC15", "value": 9.2, "unit": "µM"}]}, {"smiles": "CC(C)N1CC(=O)N(Cc2ccc(C(F)(F)F)cc2)C2(CN(C=O)C2)C1=O", "note": "[Compound 69, 8-isopropyl-6,9-dioxo-5-(4-(trifluoromethyl)benzyl)-2,5,8-triazaspiro[3.5]-nonane-2-carbaldehyde]", "values": [{"measurement": "CDMF75 IC15", "value": 15.4, "unit": "µM"}]}, {"smiles": "CNC(=O)N1CC2(C1)C(=O)N(C1CCCC1)CC(=O)N2Cc1ccc(C(F)(F)F)cc1", "note": "[Compound 70, 8-cyclopentyl-N-methyl-6,9-dioxo-5-(4-(trifluoromethyl)benzyl)-2,5,8-triazaspiro[3.5]-nonane-2-carboxamide]", "values": [{"measurement": "CDMF75 IC15", "value": 9.5, "unit": "µM"}]}, {"smiles": "CC(C)N1CC(=O)N(Cc2ccc(Cl)cc2)C2(CCN(c3ccncn3)C2)C1=O", "note": "(stereo not shown) [Compound 71, 6-(4-chlorobenzyl)-9-isopropyl-2-(pyrimidin-4-yl)-2,6,9-triazaspiro-[4.5]decane-7,10-dione]", "values": [{"measurement": "CDMF75 IC15", "value": 4.8, "unit": "µM"}]}, {"smiles": "Cc1cc(N2CCC3(C2)C(=O)N(C(C)C)CC(=O)N3Cc2ccc(C(F)(F)F)cc2)ccn1", "note": "(stereo not shown) [Compound 72, 9-isopropyl-2-(2-methylpyridin-4-yl)-6-(4-(trifluoromethyl)benzyl)-2,6,9-triazaspiro[4.5]-decane-7,10-dione]", "values": [{"measurement": "CDMF75 IC15", "value": 9.0, "unit": "µM"}]}, {"smiles": "CC(C)N1CC(=O)N(Cc2ccc(C(F)(F)F)cc2)C2(CCN(c3cccnn3)C2)C1=O", "note": "(stereo not shown) [Compound 73, 9-isopropyl-2-(pyridazin-3-yl)-6-(4-(trifluoromethyl)benzyl)-2,6,9-triazaspiro[4.5]-decane-7,10-dione]", "values": [{"measurement": "CDMF75 IC15", "value": 5.7, "unit": "µM"}]}, {"smiles": "CC(C)N1CC(=O)N(Cc2ccc(Cl)cc2)C2(CCN(c3cnccn3)C2)C1=O", "note": "(stereo not shown) [Compound 74, 6-(4-chlorobenzyl)-9-isopropyl-2-(pyrazin-2-yl)-2,6,9-triazaspiro[4.5]-decane-7,10-dione]", "values": [{"measurement": "CDMF75 IC15", "value": 4.2, "unit": "µM"}]}, {"smiles": "Cc1ccc(N2CCC3(C2)C(=O)N(C(C)C)CC(=O)N3Cc2ccc(Cl)cc2)nc1", "note": "(stereo not shown) [Compound 75, 6-(4-chlorobenzyl)-9-isopropyl-2-(5-methylpyridin-2-yl)-2,6,9-triazaspiro[4.5]-decane-7,10-dione]", "values": [{"measurement": "CDMF75 IC15", "value": 1.1, "unit": "µM"}]}, {"smiles": "CC(C)N1CC(=O)N(Cc2ccc(C(F)(F)F)cc2)C2(CCN(c3cc[nH]c(=O)c3)C2)C1=O", "note": "(stereo not shown) [Compound 76, 9-isopropyl-2-(2-oxo-1,2-dihydropyridin-4-yl)-6-(4-(trifluoromethyl)benzyl)-2,6,9-triazaspiro[4.5]decane-7,10-dione]", "values": [{"measurement": "CDMF75 IC15", "value": 2.2, "unit": "µM"}]}]}
